Data from US9738634B2, “Heterocyclic amide compound and herbicide” (SYNGENTA PARTICIPATIONS AG, priority 2013, dated 2017).

How the values were obtained:
Format in all cases: in vivo
Details in all cases: treatment dosage 320 g/ha
crabgrass [1] = assay: Test Example 3: weedkilling efficacy through soil treatment; D: crabgrass
How it was run: (§1)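 Crop and weed responses were judged three weeks after a uniform surface spray of the water-diluted emulsion at the given g/ha rate. Seeds sat beneath about 1.5 cm of sterilized diluvial soil, and boxes stood in a greenhouse at 25 to 30° C.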

barnyard grass [2] = assay: Test Example 1: weedkilling efficacy, preemergent weed treatment in the submerged state; A: barnyard grass
How it was run: (§2)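 Pre-emergence paddy test: weed seeds sown in submerged alluvial soil (4 cm water), 2.5-leaf rice transplanted, water-diluted emulsion applied to water surface at sowing at stated g/ha. Scored at 3 weeks, greenhouse 25–30 °C.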

rapeseed [3] = assay: Test Example 4: foliar treatment, effect on crop; g: rapeseed
How it was run: (§3)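 Seeds are spot-sown into sterilized diluvial soil and covered with about 1.5 cm of soil. After 14 days' greenhouse growth at 25 to 30° C, plants are sprayed on stems and leaves with diluted emulsion at the stated g/ha rate, then scored at 3 weeks.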

bulrush [4] = assay: Test Example 1: weedkilling efficacy, preemergent weed treatment in the submerged state; B: bulrush
How it was run: as §2

transplanted rice = assay: Test Example 1: preemergent weed treatment in the submerged state, effect on crop; a: transplanted rice
How it was run: as §2

rapeseed [5] = assay: Test Example 3: soil treatment, effect on crop; g: rapeseed
How it was run: as §1

common wind-grass [6] = assay: Test Example 4: weedkilling efficacy by foliar treatment; J: common wind-grass
How it was run: as §3

Italian ryegrass [7] = assay: Test Example 3: weedkilling efficacy through soil treatment; I: Italian ryegrass
How it was run: as §1

soybean [8] = assay: Test Example 4: foliar treatment, effect on crop; d: soybean
How it was run: as §3

chickweed [9] = assay: Test Example 3: weedkilling efficacy through soil treatment; N: chickweed
How it was run: as §1

barnyard grass [10] = assay: Test Example 4: weedkilling efficacy by foliar treatment; F: barnyard grass
How it was run: as §3

soybean [11] = assay: Test Example 3: soil treatment, effect on crop; d: soybean
How it was run: as §1

fig-leafed goosefoot [12] = assay: Test Example 3: weedkilling efficacy through soil treatment; M: fig-leafed goosefoot
How it was run: as §1

corn [13] = assay: Test Example 4: foliar treatment, effect on crop; c: corn
How it was run: as §3

oval-leafed pondweed [14] = assay: Test Example 2: weedkilling efficacy, growth period weed treatment in the submerged state; C: oval-leafed pondweed
How it was run: (§4)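 Seedlings at 1-2 leaves in 4 cm-deep submerged alluvial soil received emulsion formulations on the water surface, dosed per hectare; effects were judged 3 weeks on.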

black-grass [15] = assay: Test Example 4: weedkilling efficacy by foliar treatment; H: black-grass
How it was run: as §3

beet [16] = assay: Test Example 4: foliar treatment, effect on crop; f: beet
How it was run: as §3

directly sown rice [17] = assay: Test Example 4: foliar treatment, effect on crop; b: directly sown rice
How it was run: as §3

chickweed [18] = assay: Test Example 4: weedkilling efficacy by foliar treatment; N: chickweed
How it was run: as §3

catchweed [19] = assay: Test Example 3: weedkilling efficacy through soil treatment; O: catchweed
How it was run: as §1

beet [20] = assay: Test Example 3: soil treatment, effect on crop; f: beet
How it was run: as §1

Italian ryegrass [21] = assay: Test Example 4: weedkilling efficacy by foliar treatment; I: Italian ryegrass
How it was run: as §3

directly sown rice [22] = assay: Test Example 3: soil treatment, effect on crop; b: directly sown rice
How it was run: as §1

oval-leafed pondweed [23] = assay: Test Example 1: weedkilling efficacy, preemergent weed treatment in the submerged state; C: oval-leafed pondweed
How it was run: as §2

common wind-grass [24] = assay: Test Example 3: weedkilling efficacy through soil treatment; J: common wind-grass
How it was run: as §1

corn [25] = assay: Test Example 3: soil treatment, effect on crop; c: corn
How it was run: as §1

black-grass [26] = assay: Test Example 3: weedkilling efficacy through soil treatment; H: black-grass
How it was run: as §1

bulrush [27] = assay: Test Example 2: weedkilling efficacy, growth period weed treatment in the submerged state; B: bulrush
How it was run: as §4

wheat [28] = assay: Test Example 3: soil treatment, effect on crop; e: wheat
How it was run: as §1

birds-eye speedwell [29] = assay: Test Example 4: weedkilling efficacy by foliar treatment; p: birds-eye speedwell
How it was run: as §3

wheat [30] = assay: Test Example 4: foliar treatment, effect on crop; e: wheat
How it was run: as §3

green foxtail [31] = assay: Test Example 3: weedkilling efficacy through soil treatment; E: green foxtail
How it was run: as §1

crabgrass [32] = assay: Test Example 4: weedkilling efficacy by foliar treatment; D: crabgrass
How it was run: as §3

birds-eye speedwell [33] = assay: Test Example 3: weedkilling efficacy through soil treatment; p: birds-eye speedwell
How it was run: as §1

wild oat [34] = assay: Test Example 4: weedkilling efficacy by foliar treatment; G: wild oat
How it was run: as §3

redroot pigweed [35] = assay: Test Example 4: weedkilling efficacy by foliar treatment; L: redroot pigweed
How it was run: as §3

green foxtail [36] = assay: Test Example 4: weedkilling efficacy by foliar treatment; E: green foxtail
How it was run: as §3

barnyard grass [37] = assay: Test Example 3: weedkilling efficacy through soil treatment; F: barnyard grass
How it was run: as §1

redroot pigweed [38] = assay: Test Example 3: weedkilling efficacy through soil treatment; L: redroot pigweed
How it was run: as §1

catchweed [39] = assay: Test Example 4: weedkilling efficacy by foliar treatment; O: catchweed
How it was run: as §3

barnyard grass [40] = assay: Test Example 2: weedkilling efficacy, growth period weed treatment in the submerged state; A: barnyard grass
How it was run: as §4

Indian mallow [41] = assay: Test Example 4: weedkilling efficacy by foliar treatment; K: Indian mallow
How it was run: as §3

Indian mallow [42] = assay: Test Example 3: weedkilling efficacy through soil treatment; K: Indian mallow
How it was run: as §1

wild oat [43] = assay: Test Example 3: weedkilling efficacy through soil treatment; G: wild oat
How it was run: as §1

fig-leafed goosefoot [44] = assay: Test Example 4: weedkilling efficacy by foliar treatment; M: fig-leafed goosefoot
How it was run: as §3

CC1=C(c2ccccc2)C(=O)N(C(C)(C)C(=O)Nc2cc(C(F)F)cc(Cl)n2)CO1 [B-2-44]
D (crabgrass) weedkilling efficacy grade (crabgrass [1]): 5 (weed kill ratio 90% or more, (practically complete withering))
A (barnyard grass) weedkilling efficacy grade (barnyard grass [2]): 5 (weed kill ratio 90% or more, (practically complete withering))
g (rapeseed) effect on crop grade (rapeseed [3]): 5 (weed kill ratio 90% or more, (practically complete withering))
B (bulrush) weedkilling efficacy grade (bulrush [4]): 5 (weed kill ratio 90% or more, (practically complete withering))
a (transplanted rice) effect on crop grade (transplanted rice): 5 (weed kill ratio 90% or more, (practically complete withering))
g (rapeseed) effect on crop grade (rapeseed [5]): 4 (weed kill ratio 70% or more, less than 90%)
J (common wind-grass) weedkilling efficacy grade (common wind-grass [6]): 5 (weed kill ratio 90% or more, (practically complete withering))
I (Italian ryegrass) weedkilling efficacy grade (Italian ryegrass [7]): 5 (weed kill ratio 90% or more, (practically complete withering))
d (soybean) effect on crop grade (soybean [8]): 4 (weed kill ratio 70% or more, less than 90%)
N (chickweed) weedkilling efficacy grade (chickweed [9]): 3 (weed kill ratio 40% or more, less than 70%)
F (barnyard grass) weedkilling efficacy grade (barnyard grass [10]): 4 (weed kill ratio 70% or more, less than 90%)
d (soybean) effect on crop grade (soybean [11]): 0 (weed kill ratio 5% or less (practically no effect))
M (fig-leafed goosefoot) weedkilling efficacy grade (fig-leafed goosefoot [12]): 3 (weed kill ratio 40% or more, less than 70%)
c (corn) effect on crop grade (corn [13]): 1 (weed kill ratio 5% or more, less than 20%)
C (oval-leafed pondweed) weedkilling efficacy grade (oval-leafed pondweed [14]): 5 (weed kill ratio 90% or more, (practically complete withering))
H (black-grass) weedkilling efficacy grade (black-grass [15]): 5 (weed kill ratio 90% or more, (practically complete withering))
f (beet) effect on crop grade (beet [16]): 3 (weed kill ratio 40% or more, less than 70%)
b (directly sown rice) effect on crop grade (directly sown rice [17]): 3 (weed kill ratio 40% or more, less than 70%)
N (chickweed) weedkilling efficacy grade (chickweed [18]): 4 (weed kill ratio 70% or more, less than 90%)
O (catchweed) weedkilling efficacy grade (catchweed [19]): 0 (weed kill ratio 5% or less (practically no effect))
f (beet) effect on crop grade (beet [20]): 3 (weed kill ratio 40% or more, less than 70%)
I (Italian ryegrass) weedkilling efficacy grade (Italian ryegrass [21]): 5 (weed kill ratio 90% or more, (practically complete withering))
b (directly sown rice) effect on crop grade (directly sown rice [22]): 3 (weed kill ratio 40% or more, less than 70%)
C (oval-leafed pondweed) weedkilling efficacy grade (oval-leafed pondweed [23]): 5 (weed kill ratio 90% or more, (practically complete withering))
J (common wind-grass) weedkilling efficacy grade (common wind-grass [24]): 5 (weed kill ratio 90% or more, (practically complete withering))
c (corn) effect on crop grade (corn [25]): 0 (weed kill ratio 5% or less (practically no effect))
H (black-grass) weedkilling efficacy grade (black-grass [26]): 5 (weed kill ratio 90% or more, (practically complete withering))
B (bulrush) weedkilling efficacy grade (bulrush [27]): 5 (weed kill ratio 90% or more, (practically complete withering))
e (wheat) effect on crop grade (wheat [28]): 1 (weed kill ratio 5% or more, less than 20%)
P (birds-eye speedwell) weedkilling efficacy grade (birds-eye speedwell [29]): 5 (weed kill ratio 90% or more, (practically complete withering))
e (wheat) effect on crop grade (wheat [30]): 4 (weed kill ratio 70% or more, less than 90%)
E (green foxtail) weedkilling efficacy grade (green foxtail [31]): 5 (weed kill ratio 90% or more, (practically complete withering))
D (crabgrass) weedkilling efficacy grade (crabgrass [32]): 4 (weed kill ratio 70% or more, less than 90%)
P (birds-eye speedwell) weedkilling efficacy grade (birds-eye speedwell [33]): 4 (weed kill ratio 70% or more, less than 90%)
G (wild oat) weedkilling efficacy grade (wild oat [34]): 3 (weed kill ratio 40% or more, less than 70%)
L (redroot pigweed) weedkilling efficacy grade (redroot pigweed [35]): 3 (weed kill ratio 40% or more, less than 70%)
E (green foxtail) weedkilling efficacy grade (green foxtail [36]): 5 (weed kill ratio 90% or more, (practically complete withering))
F (barnyard grass) weedkilling efficacy grade (barnyard grass [37]): 5 (weed kill ratio 90% or more, (practically complete withering))
L (redroot pigweed) weedkilling efficacy grade (redroot pigweed [38]): 0 (weed kill ratio 5% or less (practically no effect))
O (catchweed) weedkilling efficacy grade (catchweed [39]): 5 (weed kill ratio 90% or more, (practically complete withering))
A (barnyard grass) weedkilling efficacy grade (barnyard grass [40]): 5 (weed kill ratio 90% or more, (practically complete withering))
K (Indian mallow) weedkilling efficacy grade (Indian mallow [41]): 4 (weed kill ratio 70% or more, less than 90%)
K (Indian mallow) weedkilling efficacy grade (Indian mallow [42]): 0 (weed kill ratio 5% or less (practically no effect))
G (wild oat) weedkilling efficacy grade (wild oat [43]): 2 (weed kill ratio 20% or more, less than 40%)
M (fig-leafed goosefoot) weedkilling efficacy grade (fig-leafed goosefoot [44]): 3 (weed kill ratio 40% or more, less than 70%)
